Measurements taken from the CheMixHub viscosity set.

Assay: xn = mol fraction of the nth substance listed

CCCC[P+](C)(CCCC)CCCC.COS(=O)(=O)[O-] + CN(C)C=O
100 kPa
Settings	viscosity [mPa·s]
293.15 K, x1 = 0.4272	67.15
303.15 K, x1 = 0.8837	286.5
318.15 K, x1 = 0.6717	59.15
323.15 K, x1 = 0.7768	84.15

CCCCOP(=O)(O)OCCCC + CCCN
297 K, 101 kPa
Settings	viscosity [mPa·s]
x2 = 0.15	60
x2 = 0.3	100
x2 = 0.48	1370
x2 = 0.5	1700
x2 = 0.66	170

C=C(C)C(=O)OC + CCCCOCCCC
viscosity [mPa·s], 101.3 kPa
Settings	298.15 K	308.15 K
x1 = 0.0446	0.633	0.581
x1 = 0.1479	0.616	0.561
x1 = 0.2442	0.603	0.546
x1 = 0.3388	0.593	0.532
x1 = 0.4495	0.584	0.519
x1 = 0.4924	0.581	0.515
x1 = 0.5489	0.579	0.51
x1 = 0.6504	0.576	0.502
x1 = 0.7489	0.575	0.496
x1 = 0.8501	0.577	0.492
x1 = 0.9428	0.581	0.49

C[N+](C)(C)CCC[N+]1(C)CCCCC1.N#C[N-]C#N.N#C[N-]C#N + CC#N
viscosity [mPa·s], 100 kPa
Settings	x1 = 0.0999	x1 = 0.7001	x1 = 0.7996
298.15 K	–	–	895.3
318.15 K	2.675	163.5	–

CC(=O)Oc1ccccc1 + CCCCCOC(C)=O
Settings	viscosity [mPa·s]
298.15 K, 101 kPa, x1 = 0.5	0.9319

CC(N)(CO)CO + O
viscosity [mPa·s], 101.3 kPa
Settings	303.15 K	313.15 K	323.15 K
x1 = 0.019	1.127	0.9018	0.7417
x1 = 0.041	1.683	1.307	1.045
x1 = 0.068	2.681	1.999	1.567

CC(O)CNCC(C)O (stereo unspecified) + O
viscosity [mPa·s]
Settings	293.15 K	298.15 K	303.15 K	308.15 K	313.15 K	318.15 K	323.15 K
101 kPa, x1 = 0.023	–	–	–	–	–	1.095	–
101 kPa, x1 = 0.03	–	–	–	1.695	–	–	–
101.3 kPa, x1 = 0.0071	1.261	1.097	0.958	0.834	0.738	–	0.597
101.3 kPa, x1 = 0.0148	1.61	1.37	1.211	1.046	0.914	–	0.775
101.3 kPa, x1 = 0.0329	2.803	2.363	2.08	1.803	1.54	–	1.2

CCCCCCCCCCCC(=O)[O-].[Na+] + CCCCCCCC(=O)O
100 kPa, x1 = 0.2
Settings	viscosity [mPa·s]
293.15 K	60.29
298.15 K	47.97
303.15 K	38.68
308.15 K	31.58
313.15 K	26.09
318.15 K	21.79
323.15 K	18.38
